Data: patent publication US20210128537A1, “T-TYPE CALCIUM CHANNEL MODULATORS AND METHODS OF USE THEREOF” (Praxis Precision Medicines, inc., priority 2016, published 2021)

Legend:
Type in all cases: in vivo, rat
post-SE rats [1] = experiment: Kainic acid induced post-status epilepticus model, video-EEG seizure analysis
Experimental: Pumps were filled with either Z944 to deliver a daily dose of 60 mg/kg, levetiracetam to deliver a daily dose of 200 mg/kg or vehicle. For the drug tolerability study, osmotic pumps continuously either Z944, levetiracetam or vehicle for 7 days and for the post-SE study osmotic pumps delivered continuously the different treatments for 28 days.
FIG. 11 summarizes the different methods used on this experimental paradigm.
Animals were implanted with subdural EEG recording electrodes and one week after surgery, the animals were connected using cables that allowed them free movement around their cage. A repeated low dose KA administration protocol was used. Rats were injected i.p. with an initial dose of KA 7.5 mg/kg plus 3 ml of normal saline to prevent dehydration. Animals were monitored for 45 minutes for EEG and behavioural seizures based on the Racine scale. […] This was repeated up to 2 times every 45 minutes. An animal was eliminated from the experiment if it didn't show a stable self-sustained SE after a maximum KA total dose of 15 mg/kg. Two sham groups were treated identically but received saline injections instead of KA. After four hours of sustained electroencephalographic and behavioural seizures the animals were randomly allocated to one of the five treatment groups: sham+vehicle (n=6), sham+Z944 (n=6), post-SE+vehicle (n=8), post-SE+Z944 (n=8), post-SE+levetiracetam (n=9).
Animals were anesthetized and implanted with subcutaneous osmotic pumps containing either vehicle Z944 (60 mg/kg/day), or levetiracetam (200 mg/kg/day) that delivered the treatment continuously for 4 weeks. Immediately after the pump implantation, SE was stopped with diazepam (5 mg/kg/dose).
vEEG recordings commenced at least 4 h prior the induction of SE to provide baseline recordings. The video-EEG recordings continued for the whole duration of the treatment period, i.e. four weeks after the termination of the SE. […] EEG analysis was performed in a blinded manner and confirmed by two different observers. All EEG recordings were visually and manually annotated using Profusion 3 software. A seizure was defined as an episode of rhythmic spiking activity that was three times the baseline amplitude and a frequency >5 Hz that lasted at least 10 s. The end of a seizure was determined as the last spike. The average number of seizures per day, average seizure duration and seizure class (severity) were analysed.

post-SE rats [2] = experiment: Morris water maze in post-SE rats; settings: Z944 60 mg/kg/day, levetiracetam 200 mg/kg/day for 4 weeks
Experimental: (§1) All behavioural tests were performed in a light-controlled (˜110 lux), closed, quiet and clean room in the. Behavioural testing was performed in a blinded manner to the treatment groups. All of the behavioural tests were video recorded for future analysis. OF, EPM and MWM sessions were filmed using a digital camera mounted above the centre of the arena, which was connected to a computer for the recording and objective analysis of digitized behavioural tests (EthoVision 3.0.15, Noldus). The first behavioural test was performed one week after the last EEG recording. The different behavioural tests/session were performed 24 hours apart from each other. All tests were scored by an experienced observer who was blind to the experimental conditions of the animals.
The MWM is a circular black PVC plastic pool of 160 cm diameter which is filled to a depth of either 2.5 cm above a 10 cm diameter hidden platform water at 25±1° C. The platform is located in the centre of the South-West quadrant during the first 3 sessions and changed to North-East quadrant for the remaining sessions. Visual cues are placed in the main 4 cardinal points, consisting of large black and white symbols that serve as orientation landmarks for the rats. […] The latency to find the escape platform, speed and strategic path used by the animal to locate the platform are recorded. […]

[3] = test system: Wistar rats, amygdala kindling; experiment: Progression of seizures in the amygdala kindling model
Experimental: Animals were implanted with EEG recording electrodes and with a stimulating bipolar electrode in the left basolateral amygdaloid nucleus using the coordinates AP±3.0 mm, ML±5.9 mm, DV±6.0 mm. The after discharge threshold (ADT) for each animal was determined by administering a stimulation (frequency=60.1 Hz; duration=1000 μs) at one minute intervals until a seizure was clicited. The amplitude of the stimulation was started at 0.02 mA with increments of 0.02 mA; the stimulations were stopped when the animal experienced a seizure of ≥6 second duration, or if the amplitude of 0.40 mA was reached without the occurrence of a seizure. […] Kindling was performed twice a day for five days per week with an endpoint of 30 stimulations or until the animal presented five class V seizures (referred to as fully kindled). The seizure severity was classified from 0 (less severe) to V (most severe) according to the Racine Scale (Racine, 1972b). Sham kindled animals were handled the same way as the kindled animals, although no electrical stimulation was applied. An animal is classified as fully kindled once it has experienced 5 class V seizures.
Testing Z944 in the progression of seizures in the amygdala kindling model Wistar rats underwent surgery to implant bipolar stimulation electrodes and EEG recording electrodes as described above. ADT was determined as described for the anti-seizure study. Animals were randomly assigned to four different cohorts; Cohort 1: kindled sham+vehicle (n=8); Cohort 2: kindled+vehicle (n=6); Cohort 3: kindled+ETX (100 mg/kg, n=6) and Cohort 4: kindled+Z944 (30 mg/kg, n=7). Thirty minutes prior each kindling stimulation, the animals received an IP injection of vehicle, ETX, or Z944 administered at a dose volume of 5 ml/kg up to an endpoint of 30 stimulations and the seizure class elicited and seizure duration was recorded. […] Adverse effects were recorded every 15 minutes from the drug administration until 90 minutes after. An investigator blinded to the drug treatment analyzed all EEG recordings. The seizure class each stimulation elicited was recorded and averaged and the duration of the primary and total seizures were recorded.

post-SE rats [4] = experiment: Sucrose preference test in post-SE rats; settings: Z944 60 mg/kg/day for 4 weeks, p<0.05
Experimental: as §1
The SPT was used to assess depressive-like behaviour. The animals remained to stay in their same home cage. One hour before the start of the test, the animals were given up to 0.5 ml of the testing 2% sucrose to ensure that the animals would drink the sucrose solution. The animals were presented with two bottles, one filled with water and the other one filled with 2% sucrose in water for 24 hours. On both tests, bottle position was randomised to avoid position preference. Total fluid intake and percentage preference for sucrose were recorded.

SMILES: CC(C)(C)NC(=O)CN1CCC(CNC(=O)c2cc(F)cc(Cl)c2)CC1 [Z944]
- seizures on EEG after drug washout (seizures per day, duration, severity) (post-SE rats [1]; 60 mg/kg/day for 4 weeks, EEG after 4 weeks from drug washout): Anti-Epileptogenic
- seizures on EEG during treatment (seizures per day, duration, severity) (post-SE rats [1]; 60 mg/kg/day, during the 4 weeks of continuous treatment after SE): Anti-Epileptogenic Effects
- number of seizures in each animal that developed seizures (post-SE rats [1]; in two weeks of vEEG after drug washout): one
- neurological adverse effects after prolonged treatment (post-SE rats [1]; osmotic pump 4 weeks, Z944 60 mg/kg/day, levetiracetam 200 mg/kg/day): only transient and minor neurological adverse effects
- treated animals that developed seizures (post-SE rats [1]; two weeks of vEEG after 4 weeks drug washout, n=8): two of the eight
- time to find the hidden platform (cognition) (post-SE rats [2]): Improves Cognition
- number of stimulations to evoke a class III, IV or V seizure ([3]; 30 mg/kg IP 30 min prior each stimulation, vs vehicle): required significantly more stimulations
- number of treated animals that reached the fully kindled state ([3]; 30 mg/kg IP, n=7, up to 30 stimulations): one
- number of stimulations to reach class V ([3]; 30 mg/kg IP, vs ETX 100 mg/kg (p<0.01)): required more stimulations
- number of stimulations to reach the fully kindled state ([3]; 30 mg/kg IP, vs vehicle (p<0.01) and ETX (p<0.05)): required significantly more stimulations
- sucrose preference (post-SE rats [4]): vehicle had a reduced sucrose preference compared to both sham groups and post-SE+Z944 group
